Results published in patent US20240368150A1 (Hoffmann-La Roche Inc., priority 2021, published 2024).
Read-outs that look alike come from different tables or passages of the source.

Assays:
primary human T-cells [1] = test system: primary human T-cells
primary human T-cells [2] = test: Proliferation assay after 5 days (CellTiter-Glo, CD3 stimulation; PBS counter screen); format: cell-based; details: T-cell, 120 h, CD3 stimulation; for Emax: 5 days, normalized to reference compound A1 as stimulator control = 100%, DMSO neutral control, read-out: Emax proliferation (% activation); for EC50: primary human T-cells, CellTiter-Glo after 5 days, EC50 of fitted sigmoidal curve, read-out: Tcell Proliferation CD3 EC50
Summary of the method: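 Cpds added to medium-only plates; 5 d culture. Readout CellTiter-Glo 2.0 (equal vol), RT 45 min equilibration, 15 min rocking RT, luminescence. ATP signal taken as cell number.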

Row | Compound | EC50 (primary human T-cells [1]) [µM] | Emax (primary human T-cells [2]; Homo sapiens) [%] | EC50 (primary human T-cells [2]; Homo sapiens) [µM] | EC50 (primary human T-cells [2]) [µM]
1 | N[C@H]1CS(=O)(=O)c2cc(F)c(-c3nnc(NCC(F)(F)F)o3)cc2N(Cc2ccc(Cl)cc2)C1=O [Example 487, (3R)-3-amino-5-[(4-chlorophenyl)methyl]-8-fluoro-1,1-dioxo-7-[5-(2,2,2-trifluoroethylamino)-1,3,4-oxadiazol-2-yl]-2,3-dihydro-1λ^6,5-benzothiazepin-4-one] | 8.6 | 112 | 1.19 | –
2 | CC1(C)COCCN1c1nnc(-c2cc3c(cc2F)S(=O)(=O)C[C@H](N)C(=O)N3Cc2ccc(Cl)cc2)o1 [Example 491, (3R)-3-amino-5-[(4-chlorophenyl)methyl]-7-[5-(3,3-dimethylmorpholin-4-yl)-1,3,4-oxadiazol-2-yl]-8-fluoro-1,1-dioxo-2,3-dihydro-1λ^6,5-benzothiazepin-4-one] | 0.443 | 56 | 0.142 | –
3 | CC(Nc1nnc(-c2cc3c(cc2F)S(=O)(=O)C[C@H](N)C(=O)N3Cc2ccc(Cl)cc2)o1)C1CC(F)(F)C1 (stereo partly drawn) [Example 493, (3R)-3-amino-5-[(4-chlorophenyl)methyl]-7-[5-[1-(3,3-difluorocyclobutyl)ethylamino]-1,3,4-oxadiazol-2-yl]-8-fluoro-1,1-dioxo-2,3-dihydro-1λ^6,5-benzothiazepin-4-one] | 1.28 | 102 | 0.983 | –
4 | CC(C)(CC(F)(F)F)Nc1nnc(-c2cc3c(cc2F)S(=O)(=O)C[C@H](N)C(=O)N3Cc2ccc(Cl)cc2)o1 [Example 494, (3R)-3-amino-5-[(4-chlorophenyl)methyl]-8-fluoro-1,1-dioxo-7-[5-[(3,3,3-trifluoro-1,1-dimethyl-propyl)amino]-1,3,4-oxadiazol-2-yl]-2,3-dihydro-1λ^6.5-benzothiazepin-4-one] | 1.2 | 118 | 0.464 | –
5 | C#CC1(Nc2nnc(-c3cc4c(cc3F)S(=O)(=O)C[C@H](N)C(=O)N4Cc3ccc(Cl)cc3)o2)CCCCC1 [Example 497, (3R)-3-amino-5-[(4-chlorophenyl)methyl]-7-[5-[(1-ethynylcyclohexyl)amino]-1,3,4-oxadiazol-2-yl]-8-fluoro-1,1-dioxo-2,3-dihydro-1λ^6,5-benzothiazepin-4-one] | 1.72 | 125 | 0.874 | –
6 | CC(Nc1nnc(-c2cc3c(cc2F)S(=O)(=O)C[C@H](N)C(=O)N3Cc2ccc(Cl)cc2)o1)C(F)(F)F (stereo partly drawn) [Example 498, (3R)-3-amino-5-[(4-chlorophenyl)methyl]-8-fluoro-1,1-dioxo-7-[5-[(2,2,2-trifluoro-1-methyl-ethyl)amino]-1,3,4-oxadiazol-2-yl]-2,3-dihydro-1λ^6,5-benzothiazepin-4-one] | 0.724 | 103 | – | 1.08
7 | C[C@@H](COC(F)(F)F)Nc1nnc(-c2cc3c(cc2F)S(=O)(=O)C[C@H](N)C(=O)N3Cc2ccc(Cl)cc2)o1 [Example 503, (3R)-3-amino-5-[(4-chlorophenyl)methyl]-8-fluoro-1,1-dioxo-7-[5-[[(1S)-1-methyl-2-(trifluoromethoxy)ethyl]amino]-1,3,4-oxadiazol-2-yl]-2,3-dihydro-1λ^6,5-benzothiazepin-4-one] | 3.09 | 135 | 0.371 | –
8 | N[C@H]1CS(=O)(=O)c2cc(F)c(-c3nnc(N4CC5(CCCO5)C4)o3)cc2N(Cc2ccc(Cl)cc2)C1=O [Example 505, (3R)-3-amino-5-[(4-chlorophenyl)methyl]-8-fluoro-7-[5-(5-oxa-2-azaspiro[3.4]octan-2-yl)-1,3,4-oxadiazol-2-yl]-1,1-dioxo-2,3-dihydro-1λ^6,5-benzothiazepin-4-one] | 0.191 | 94 | 0.181 | –
9 | CC(CC(F)(F)F)Nc1nnc(-c2cc3c(cc2F)S(=O)(=O)C[C@H](N)C(=O)N3Cc2ccc(Cl)cc2)o1 (stereo partly drawn) [Example 506, (3R)-3-amino-5-[(4-chlorophenyl)methyl]-8-fluoro-1,1-dioxo-7-[5-[(3,3,3-trifluoro-1-methyl-propyl)amino]-1,3,4-oxadiazol-2-yl]-2,3-dihydro-1λ^6.5-benzothiazepin-4-one] | 1.32 | 88 | 0.243 | –

More lines, main results first:

Row | EC50 (primary human T-cells [1]) [µM] | Compound | Emax (primary human T-cells [2]; Homo sapiens) [%] | EC50 (primary human T-cells [2]; Homo sapiens) [µM] | EC50 (primary human T-cells [2]) [µM]
10 | 2.6 | N[C@H]1CS(=O)(=O)c2cc(F)c(-c3nnc(NC4(CCO)CCCCC4)o3)cc2N(Cc2ccc(Cl)cc2)C1=O [Example 483, (3R)-3-amino-5-[(4-chlorophenyl)methyl]-8-fluoro-7-[5-[[l-(2-hydroxyethyl)cyclohexyl]amino]-1,3,4-oxadiazol-2-yl]-1,1-dioxo-2,3-dihydro-1λ^6,5-benzothiazepin-4-one] | 79 | 1.54 | –
11 | 1.89 | CC(O)(CNc1nnc(-c2cc3c(cc2F)S(=O)(=O)C[C@H](N)C(=O)N3Cc2ccc(Cl)cc2)o1)C(F)(F)F (stereo partly drawn) [Example 484] | 51 | 1.06 | –
12 | 8.13 | N[C@H]1CS(=O)(=O)c2cc(F)c(-c3nnc(N4CCC(F)(F)C(CO)C4)o3)cc2N(Cc2ccc(Cl)cc2)C1=O (stereo partly drawn) [Example 485, (3R)-3-amino-5-[(4-chlorophenyl)methyl]-7-[5-[4,4-difluoro-3-(hydroxymethyl)-1-piperidyl]-1,3,4-oxadiazol-2-yl]-8-fluoro-1,1-dioxo-2,3-dihydro-1λ^6,5-benzothiazepin-4-one] | 98 | 0.868 | –
13 | 6.69 | CC(C)(C#N)Nc1nnc(-c2cc3c(cc2F)S(=O)(=O)C[C@H](N)C(=O)N3Cc2ccc(Cl)cc2)o1 [Example 486, 2-methyl-2-[[5-[(3R)-3-amino-5-[(4-chlorophenyl)methyl]-8-fluoro-1,1,4-trioxo-2,3-dihydro-1λ^6,5-benzothiazepin-7-yl]-1,3,4-oxadiazol-2-yl]amino]propanenitrile] | 106 | 2.68 | –
14 | 4.06 | N[C@H]1CS(=O)(=O)c2cc(F)c(-c3nnc(NC4CNCC(F)(F)C4)o3)cc2N(Cc2ccc(Cl)cc2)C1=O (stereo partly drawn) [Example 489, (3R)-3-amino-5-[(4-chlorophenyl)methyl]-7-[5-[(5,5-difluoro-3-piperidyl)amino]-1,3,4-oxadiazol-2-yl]-8-fluoro-1,1-dioxo-2,3-dihydro-1λ^6,5-benzothiazepin-4-one] | 55 | 7.24 | –
15 | 3.76 | COC(=O)N1CC(Nc2nnc(-c3cc4c(cc3F)S(=O)(=O)C[C@H](N)C(=O)N4Cc3ccc(Cl)cc3)o2)CC(F)(F)C1 (stereo partly drawn) [Example 490, methyl 3,3-difluoro-5-[[5-[(3R)-3-amino-5-[(4-chlorophenyl)methyl]-8-fluoro-1,1,4-trioxo-2,3-dihydro-1λ^6,5-benzothiazepin-7-yl]-1,3,4-oxadiazol-2-yl]amino]piperidine-1-carboxylate] | 72 | 6.05 | –
16 | 0.638 | N[C@H]1CS(=O)(=O)c2cc(F)c(-c3nnc(NC4CCCN(CC(F)(F)F)C4)o3)cc2N(Cc2ccc(Cl)cc2)C1=O (stereo partly drawn) [Example 492, (3R)-3-amino-5-[(4-chlorophenyl)methyl]-8-fluoro-1,1-dioxo-7-[5-[[1-(2,2,2-trifluoroethyl)-3-piperidyl]amino]-1,3,4-oxadiazol-2-yl]-2,3-dihydro-1λ^6,5-benzothiazepin-4-one] | 88 | 0.671 | –
17 | 2.23 | N[C@H]1CS(=O)(=O)c2cc(F)c(-c3nnc(NC45CC(F)(C4)C5)o3)cc2N(Cc2ccc(Cl)cc2)C1=O [Example 499, (3R)-3-amino-5-[(4-chlorophenyl)methyl]-8-fluoro-7-[5-[(3-fluoro-1-bicyclo[1.1.1]pentanyl)amino]-1,3,4-oxadiazol-2-yl]-1,1-dioxo-2,3-dihydro-1λ^6,5-benzothiazepin-4-one] | 68 | 0.768 | –
18 | 0.911 | N[C@H]1CS(=O)(=O)c2cc(F)c(-c3nnc(NC45CC(Cl)(C4)C5)o3)cc2N(Cc2ccc(Cl)cc2)C1=O [Example 500, (3R)-3-amino-7-[5-[(3-chloro-1-bicyclo[1.1.1]pentanyl)amino]-1,3,4-oxadiazol-2-yl]-5-[(4-chlorophenyl)methyl]-8-fluoro-1,1-dioxo-2,3-dihydro-1λ^6.5-benzothiazepin-4-one] | 97 | 1.23 | –
19 | 3.12 | N[C@H]1CS(=O)(=O)c2cc(F)c(-c3nnc(NC45CC(C4)C5)o3)cc2N(Cc2ccc(Cl)cc2)C1=O [Example 501, (3R)-3-amino-7-[5-(1-bicyclo[1.1.1]pentanylamino)-1,3,4-oxadiazol-2-yl]-5-[(4-chlorophenyl)methyl]-8-fluoro-1,1-dioxo-2,3-dihydro-1λ^6.5-benzothiazepin-4-one] | 92 | 0.473 | –
20 | > 10 | CC(F)(F)CNc1nnc(-c2cc3c(cc2F)S(=O)(=O)C[C@H](N)C(=O)N3Cc2ccc(Cl)cc2)o1 [Example 502, (3R)-3-amino-5-[(4-chlorophenyl)methyl]-7-[5-(2,2-difluoropropylamino)-1,3,4-oxadiazol-2-yl]-8-fluoro-1,1-dioxo-2,3-dihydro-1λ^6,5-benzothiazepin-4-one] | 72 | 4.46 | –
21 | 1.23 | N[C@H]1CS(=O)(=O)c2cc(F)c(-c3nnc(NC4CC(C(F)(F)F)C4)o3)cc2N(Cc2ccc(Cl)cc2)C1=O (stereo partly drawn) [Example 504, (3R)-3-amino-5-[(4-chlorophenyl)methyl]-8-fluoro-1,1-dioxo-7-[5-[[3-(trifluoromethyl)cyclobutyl]amino]-1,3,4-oxadiazol-2-yl]-2,3-dihydro-1λ^6,5-benzothiazepin-4-one] | 103 | 1.11 | –
